Values of other authors as cited in US20130347140A1, “High Rebaudioside-A Plant and Methods of Producing the Same and Uses Thereof” (priority 2010, published 2013).

Conditions: vs sugar

Row | Compound | sweetness, × of sugar
1 | C=C1C[C@@]23CC[C@H]4[C@@](C)(CCC[C@@]4(C)C(=O)O[C@@H]4O[C@H](CO)[C@@H](O)[C@H](O)[C@H]4O)[C@@H]2CC[C@]1(O[C@@H]1O[C@H](CO)[C@@H](O)[C@H](O)[C@H]1O[C@@H]1O[C@H](CO)[C@@H](O)[C@H](O)[C@H]1O)C3 [Stevioside] | 250-300 ×
2 | C=C1C[C@@]23CC[C@H]4[C@@](C)(CCC[C@@]4(C)C(=O)O[C@@H]4O[C@H](CO)[C@@H](O)[C@H](O)[C@H]4O)[C@@H]2CC[C@]1(O[C@@H]1O[C@H](CO)[C@@H](O)[C@H](O[C@@H]2O[C@H](CO)[C@@H](O)[C@H](O)[C@H]2O)[C@H]1O[C@@H]1O[C@H](CO)[C@@H](O)[C@H](O)[C@H]1O)C3 [Rebaudioside A] | 350-450 ×
